Source: ChEMBL document CHEMBL5550129, “Optimization of benzenesulfonyl derivatives as anti-Trypanosomatidae agents: Structural design, synthesis, and pharmacological assessment against Trypanosoma cruzi and Leishmania infantum” (Bioorg Med Chem, 2024)

Legend:
[1] = tested on: Trypanosoma cruzi; assay: Antitrypanosomal activity against Trypanosoma cruzi Tulahuen expressing Escherichia coli beta-galactosidase infected in L929 cells pretreated with parasite for 50 hrs followed by compound addition and measured after 96 hrs; assay type: functional, organism-based
[2] = tested on: Leishmania infantum; assay: Antileishmanial activity against Leishmania infantum MHOM/BR/1974/PP75 expressing red fluorescence protein infected in THP-1 cells pre-infected for 4 hrs followed by compound addition and measured after 72 hrs by microplate reader assay; assay type: functional, organism-based; conditions: MHOM/BR/1974/PP75, THP-1
[3] = Selectivity index, ratio of CC50 for human THP-1 cells to IC50 for Leishmania braziliensis; assay type: toxicity; conditions: read-out: Ratio CC50/IC50
[4] = tested on: Leishmania braziliensis; assay: Antileishmanial activity against Leishmania braziliensis; assay type: functional, organism-based
[5] = Selectivity index, ratio of CC50 for human THP-1 cells to IC50 for Leishmania infantum; assay type: toxicity; conditions: read-out: Ratio CC50/IC50
[6] = Cytotoxicity against human THP-1 cells; assay type: toxicity, cell-based
[7] = tested on: Leishmania infantum; assay: Antileishmanial activity against Leishmania infantum; assay type: functional, organism-based
[8] = Selectivity index, ratio of CC50 for mouse L929 cells to IC50 for Trypanosoma cruzi; assay type: toxicity; conditions: read-out: Ratio CC50/IC50
[9] = Cytotoxicity against mouse L929 cells; assay type: toxicity, cell-based
[10] = tested on: Trypanosoma cruzi; assay: Antitrypanosomal activity against Trypanosoma cruzi; assay type: functional, organism-based
[11] = Cytotoxicity against human THP-1 cells incubated for 72 hrs by Alamar blue assay; assay type: toxicity, cell-based
[12] = Selectivity index, ratio of CC50 for mouse L929 cells to IC50 for Trypanosoma cruzi Tulahuen expressing Escherichia coli beta-galactosidase infected in L929 cells; assay type: toxicity; conditions: read-out: Ratio CC50/IC50
[13] = Selectivity index, ratio of CC50 for human THP-1 cells to IC50 for Leishmania infantum MHOM/BR/1974/PP75 expressing red fluorescence protein infected in THP-1 cells; assay type: toxicity, cell-based; conditions: read-out: Ratio CC50/IC50
[14] = Cytotoxicity against mouse L929 cells incubated for 96 hrs by Alamar blue assay; assay type: toxicity, cell-based
[15] = Selectivity index, ratio of CC50 for human THP-1 cells to IC50 for Leishmania braziliensis MHOM/BR/75/M2904 expressing red fluorescence protein infected in THP-1 cells; assay type: toxicity, cell-based; conditions: read-out: Ratio CC50/IC50
[16] = tested on: Leishmania braziliensis; assay: Antileishmanial activity against Leishmania braziliensis MHOM/BR/75/M2904 expressing red fluorescence protein infected in THP-1 cells pre-infected for 4 hrs followed by compound addition and measured after 72 hrs by microplate reader assay; assay type: functional, organism-based; conditions: MHOM/BR/75/M2904, THP-1

Row | Compound | IC50 [1] [µM] | IC50 [2] [µM] | CC50 at 72 h [11] [µM] | selectivity ratio [12] | selectivity ratio [13] | CC50 at 96 h [14] [µM] | IC50 [16] [µM] | other results
1 | O=S(=O)(c1ccc(F)cc1)N1CCN(c2ccccc2)CC1 | > 200 | > 100 | – | – | – | – | – | –
2 | O=S(=O)(c1ccc(Cl)cc1)N1CCNCC1 | – | – | – | – | – | – | – | selectivity ratio [3]: > 250; IC50 [4]: 4.5 µM; selectivity ratio [5]: > 250; CC50 [6]: 1250 µM; IC50 [7]: 5 µM; selectivity ratio [8]: 61; CC50 [9]: 227 µM; IC50 [10]: 3.7 µM
3 | Nc1ccc(C(=O)N2CCN(S(=O)(=O)c3ccc(Cl)cc3)CC2)cc1 | > 200 | > 100 | > 1000 | – | – | – | – | –
4 | CN(C)CCOc1ccc(N2CCN(S(=O)(=O)c3ccccc3)CC2)cc1 | 28 | > 100 | 650 | 3 | < 7 | 91.2 | – | –
5 | CN(C)CCNc1ccc(C(=O)N2CCN(S(=O)(=O)c3ccc(Cl)cc3)CC2)cn1 | 65.9 | 35.7 | 388 | 6 | 11 | 395 | – | –
6 | N#Cc1ccc(C(=O)N2CCN(S(=O)(=O)c3ccc(Cl)cc3)CC2)cc1 | > 200 | 36.4 | > 1000 | – | – | – | – | –
7 | COc1ccc(OC)c(S(=O)(=O)N2CCN(c3ccc(OCCN(C)C)cc3)CC2)c1 | 13.4 | 29.6 | 141 | 20 | 5 | 274 | 29.6 | selectivity ratio [15]: 5
8 | CN(C)CCOc1ccc(N2CCN(S(=O)(=O)c3ccccc3Br)CC2)cc1 | 3.7 | 43.3 | 161 | 3 | 4 | 10 | – | –
9 | O=C(c1ccc(-n2cnnn2)cc1)N1CCN(S(=O)(=O)c2ccc(Cl)cc2)CC1 | 145 | 35.9 | > 1000 | – | – | – | – | –
10 | CN(C)CCOc1cccc(C(=O)N2CCN(S(=O)(=O)c3ccc(Cl)cc3)CC2)c1 | 137 | 0.6 | – | – | – | – | 4.4 | –
11 | CN(C)CCOc1ccc(N2CCN(C(=O)c3ccc(Cl)cc3)CC2)cc1 | 4.3 | 37.5 | > 1000 | 79 | > 27 | 339 | – | –
12 | COc1ccc(S(=O)(=O)N2CCN(c3ccc(OCCN(C)C)cc3)CC2)cc1 | 7.1 | 25.1 | 388 | 50 | 16 | 354 | 70.5 | selectivity ratio [15]: 6
13 | CN(C)CCOc1ccc(N2CCN(S(=O)(=O)c3ccc([N+](=O)[O-])cc3)CC2)cc1 | 1.7 | 62.9 | 343 | 178 | 6 | 302 | – | –
14 | Cc1ccc(S(=O)(=O)N2CCN(c3ccc(OCCN(C)C)cc3)CC2)cc1 | 2.2 | > 100 | 298 | 136 | < 3 | 289 | – | –
15 | N#CCOc1ccc(C(=O)N2CCN(S(=O)(=O)c3ccc(Cl)cc3)CC2)cc1 | 108 | 0.8 | 371 | – | 453 | – | 0.7 | selectivity ratio [15]: 516
16 | NCCOc1ccc(C(=O)N2CCN(S(=O)(=O)c3ccc(Cl)cc3)CC2)cc1 | > 200 | > 100 | 911 | – | – | – | – | –
17 | CN(C)CCOc1cccc(N2CCN(S(=O)(=O)c3ccc(Cl)cc3)CC2)c1 | 137 | 4.6 | 170 | – | 37 | – | 41.7 | selectivity ratio [15]: 4
18 | O=C(c1ccc(N2CCNCC2)nc1)N1CCN(S(=O)(=O)c2ccc(Cl)cc2)CC1 | 9.8 | > 100 | 253 | 2 | < 3 | 18 | – | –
19 | N#CCOc1ccc(N2CCN(S(=O)(=O)c3ccc(Cl)cc3)CC2)cc1 | 7.2 | 23.3 | 46.6 | 71 | 2 | – | 40.3 | selectivity ratio [15]: 1
20 | O=C(c1ccc([N+](=O)[O-])cc1)N1CCN(S(=O)(=O)c2ccc(Cl)cc2)CC1 | > 200 | 48.8 | > 1000 | – | > 20 | – | – | –
21 | CN(C)CCOc1ccc(N2CCN(S(=O)(=O)c3ccc(N)cc3)CC2)cc1 | 168 | 55.2 | > 1000 | – | > 11 | – | – | –
22 | CN(C)CCOc1ccc(C(=O)N2CCN(S(=O)(=O)c3ccc(Cl)cc3)CC2)cc1 | 13.8 | 0.9 | > 1000 | 25 | > 2460 | 345 | 1.4 | selectivity ratio [15]: > 714
23 | CN(C)CCOc1ccc(N2CCN(S(=O)(=O)c3ccc(Br)cc3)CC2)cc1 | 8.3 | > 100 | 283 | > 57 | < 3 | > 427 | – | –
24 | CN(C)CCOc1ccc(N2CCN(S(=O)(=O)c3ccc(F)cc3)CC2)cc1 | 6.4 | 6.1 | > 1000 | 58 | > 405 | 374 | 21 | selectivity ratio [15]: 48
25 | CC(=O)Nc1ccc(S(=O)(=O)N2CCN(c3ccc(OCCN(C)C)cc3)CC2)cc1 | 187 | > 100 | > 1000 | – | – | – | – | –
26 | CN(C)CCOc1ccccc1C(=O)N1CCN(S(=O)(=O)c2ccc(Cl)cc2)CC1 | > 200 | 10.3 | > 500 | – | > 49 | – | 7.2 | selectivity ratio [15]: > 69.5
27 | COc1ccc(Cl)cc1S(=O)(=O)N1CCN(c2ccc(OCCN(C)C)cc2)CC1 | 12.6 | > 100 | 73.9 | 12 | < 1 | 148 | – | –
